Results taken from ChEMBL document CHEMBL3507680, “University of Dundee, Gates Library screen for HepG2 cell viability”.

Test: Human HepG2 cell viability assay in 384 well format
Format: toxicity, cell-based
Design: dose 125 nL, time 70.5 hour; concentration not given beside the values
Conditions: HepG2 cells, read-out: Inhibition

| SMILES | cytotoxicity at 70.5 h [%] |
| --- | --- |
| CCOc1ccccc1CNC(=O)N1CCC(n2cncn2)CC1 | -11.8 |
| Cc1cnn(CCC(=O)N2CCCN(c3ccccc3C#N)CC2)c1 | -1.64 |
| Cc1ccc(N2CCCC(NCC(=O)NC(C3CC3)C3CC3)C2)nn1 (centres undefined) | -8.53 |
| CCNC(c1ccc(CC)cc1)c1cccnc1 (centres undefined) | 7.31 |
| CCNC(c1ccc(Cl)cc1)c1cccnc1 (centres undefined) | 34.5 |
| CC(=O)N1CCCN(C(=O)C(C)n2cncn2)CC1 (centres undefined) | -3.53 |
| CN(C)CCN1CCC(CNCc2c[nH]nc2C(C)(C)C)CC1 | 28.4 |
| COCCN1CCC(CNCc2c[nH]nc2C(C)(C)C)CC1 | 24.7 |
| Cc1ccc(NC2CCN(C(=O)c3ccc(C#N)cc3)CC2)nn1 | -7.94 |
| CCOCCN1CCN(CC(=O)N2CCCC2)CC1CC (centres undefined) | -4.43 |
| Cc1ccc(N2CCCC(NCc3cnc(C)s3)C2)nn1 (centres undefined) | -1.22 |
| CCOCCN1CCN(CC(=O)N2CCC2)CC1CC (centres undefined) | -7.02 |
| O=C(NCCc1ccccc1)NCC(O)c1cccc(F)c1 (centres undefined) | -3.34 |
| COc1cc(C(=O)NCc2ccc3c(c2)CCCN3C)cc(OC)c1Br | -8.61 |
| CCOc1ncccc1CNCc1c(C(C)C)nn(C)c1N(C)C | 57.6 |
| CCN(Cc1cccc(F)c1)Cn1nc(C)c2c(C)onc2c1=O | -8.8 |
| CSc1ccc(CNC(=O)NCC(O)c2cccc(F)c2)cc1 (centres undefined) | -7.86 |
| Fc1ccc(-c2nc(CN3CCOC(Cn4cccn4)C3)co2)cc1 (centres undefined) | -5.89 |
| O=c1[nH]c(CN2CCOC(Cn3cccn3)C2)nc2ccccc12 (centres undefined) | -6.2 |
| Cc1cnc(C(=O)NCc2ccc3c(c2)CCCN3C)cn1 | -4.01 |
| Cc1cnn(CC2CN(Cc3nc4ccccc4s3)CCO2)c1 (centres undefined) | -4.94 |
| CN1CCCc2cc(CNC(=O)c3ccc(-n4cnnc4)cc3)ccc21 | -2.87 |
| N#Cc1ccc(CC(=O)N2CCC(Nc3cccnn3)CC2)cc1 | -5.35 |
| Cc1ccc(CC(=O)N2CCC(Nc3ccc(C)nn3)CC2)cn1 | -1.2 |

| SMILES | cytotoxicity at 70.5 h [%] |
| --- | --- |
| Cc1sc(-c2ccco2)nc1C(=O)N1CCCC1Cn1cccn1 (centres undefined) | -1.73 |
| O=C(c1cnc(-c2cnccn2)s1)N1CCCC1Cn1cccn1 (centres undefined) | -3.28 |
| Cc1nc(C)n(C2CCCN(C(=O)c3cn4cccnc4n3)C2)n1 (centres undefined) | 2.73 |
| CC(C)c1nccn1C1CCCN(C(=O)c2cn3cccnc3n2)C1 (centres undefined) | -3.43 |
| CN1CCCc2cc(CNC(=O)c3cc[n+]([O-])cc3)ccc21 | -6.17 |
| CC(C)COCCCNC(=O)NCC(O)c1cccc(F)c1 (centres undefined) | -0.106 |
| CCOc1cccc2c1OCC(C(=O)NS(=O)(=O)c1cccs1)=C2 | -9.43 |
| COCCCN(CCOC)Cc1nc2c(cnn2C)c(=O)[nH]1 | -12.6 |
| CSCc1ccc(C(=O)N2CCN(CC(C)O)CC2)cc1 (centres undefined) | -15.3 |
| O=C(CCOCC(F)(F)F)N1CCCC1c1noc(C2CC2)n1 (centres undefined) | -8.98 |
| CCN(Cc1ccc2c(c1)OCCO2)C(=O)NCc1nncn1CC | -13.5 |
| Cc1nc(CN(C)C2CCN(CCn3cc(C#N)cn3)C2)no1 (centres undefined) | 8.59 |
| O=C(COCc1ccccc1)N1CCCC1c1noc(C2CC2)n1 (centres undefined) | -7.31 |
| CC(C)c1nc(CN2CCOC(CNc3cccnn3)C2)cs1 (centres undefined) | -8.93 |
| CC(C)CN(CCc1ccccc1)Cc1nc2c(cnn2C)c(=O)[nH]1 | -3.12 |
| COCCN(CCOC)Cc1nc2c(cnn2C)c(=O)[nH]1 | 7 |
| O=C(c1cccc2c1OCO2)N1CCCC(n2ccnc2)C1 (centres undefined) | -10.3 |
| O=C(c1cnc(-c2cccs2)s1)N1CCCC(n2ccnc2)C1 (centres undefined) | -8.31 |
| COCc1ccc(C(=O)N2CCN(CC(C)O)CC2)cc1 (centres undefined) | -3.37 |
| COCCCC(=O)N1CCC(Nc2cccnn2)CC1 | -10.4 |
| Cc1cnn(CC2CCCN2C(=O)c2cccnc2-n2cncn2)c1 (centres undefined) | -13.9 |
| Cc1nn(C)c(Cl)c1C1CCCN1C(=O)c1cnc[nH]1 (centres undefined) | -12.8 |
| Cc1nc(C2CCCN2C(=O)COCc2ccccc2)no1 (centres undefined) | -10.2 |
| Cc1nn(C)c(Cl)c1C1CCCN1C(=O)c1ccc[nH]1 (centres undefined) | 9.9 |

| SMILES | cytotoxicity at 70.5 h [%] |
| --- | --- |
| N#Cc1cccc(NS(=O)(=O)c2ccc(C(=O)O)cc2F)c1 | -13.8 |
| Cc1cc(NS(=O)(=O)c2ccc(C(=O)O)cc2F)ccc1F | -10.7 |
| CN(CC(=O)N1CCCC1c1noc(C2CC2)n1)Cc1ccccc1 (centres undefined) | -7.61 |
| CCn1nc2c(cc1=O)CN(CCCN1CCCC1=O)CC2 | 16.8 |
| Cc1nccc(C(=O)NC(COCC(C)C)c2ccco2)n1 (centres undefined) | 19.4 |
| CCc1nccn1C1CCCN(C(=O)c2cnn3cccnc23)C1 (centres undefined) | 27.7 |
| O=C(COc1ccc(C(F)(F)F)cc1)N1CCOCC1c1ncon1 (centres undefined) | -6 |
| Cc1cc(C)n(CC2CCCN2C(=O)Cc2c(C)nn(C)c2C)n1 (centres undefined) | -0.624 |
| O=C(COc1ccc(Cl)cc1)N1CCOCC1c1ncon1 (centres undefined) | -1.69 |
| O=C(COc1cccc(Cl)c1)N1CCOCC1c1ncon1 (centres undefined) | 13.9 |
| Cc1ccc(NC(=O)N(C)Cc2cnn(C)c2)c(C)c1 | -10.1 |
| CC(C(=O)NCc1ccc(N2CCCCCC2)nc1)S(C)(=O)=O (centres undefined) | -9.13 |
| CS(=O)(=O)c1ccc(CNc2nccc(C(F)(F)F)n2)cc1 | -1.16 |
| O=C(CCNc1ncccn1)N1CCN(c2nccs2)CC1 | -16.3 |
| CC(C)C(NC(N)=O)C(=O)NCc1ccc(N2CCCC2)nc1 (centres undefined) | -9.75 |
| O=C(NCCNc1ncccn1)C1CC(=O)N(Cc2ccco2)C1 (centres undefined) | -4.28 |
| CN(Cc1nnc2n1CCC2)C(=O)c1ccc2c(c1)OCO2 | -11.9 |
| Cc1ccc(NC(=O)NCCCn2nc3ccccn3c2=O)cc1 | -0.527 |
| Cc1cccc(NC(=O)Cn2nc3ccccn3c2=O)c1C | -10.3 |
| O=C(NCCCn1nc2ccccn2c1=O)Nc1ccccc1 | 16.7 |
| CN(Cc1nnc2n1CCC2)C(=O)c1ccc2c(c1)CCO2 | -3.65 |
| Cc1cnc(CN2CCCC2c2noc(C)n2)cn1 (centres undefined) | 5.04 |
| Cc1ccc(NC2CCN(C(=O)c3cc(C(N)=O)cs3)CC2)nn1 | 11.5 |
| Cc1cnn(CC2CCCCN2CCCS(N)(=O)=O)c1 (centres undefined) | 33.5 |

| SMILES | cytotoxicity at 70.5 h [%] |
| --- | --- |
| Cc1cc(C)n(CC2CCCCN2CCCS(N)(=O)=O)n1 (centres undefined) | 14 |
| Cc1cnc(CN(C)C2CCN(Cc3nc4ccccc4n3C)C2)o1 (centres undefined) | 25.2 |
| Cc1ccc(CNC(=O)CN2CCCC(Cn3cncn3)C2)s1 (centres undefined) | 22.1 |
| Cc1ccccc1CC(=O)N(C)C1CCCC1 | -4.43 |
| COc1ccc(OCCN(C)C(=O)NC(C)c2nncn2C)cc1 (centres undefined) | -1.05 |
| CC(NC(=O)N(C)CCCOc1ccc(F)cc1)c1nncn1C (centres undefined) | -1.45 |
| COc1ncccc1CNC(=O)NCCNC(=O)c1ccco1 | 0.312 |
| CC(C)Oc1ncccc1CNC(=O)c1ccco1 | 1.27 |
| CCS(=O)(=O)N(C)CC(=O)Nc1ccc(Br)cn1 | 4.52 |
| O=C(Cc1ccc(-n2cccn2)cc1)N1CCN2CCCCC2C1 (centres undefined) | 3.24 |
| CC(=O)NC1CCCN(C(=O)NCc2cccnc2N(C)C)C1 (centres undefined) | 4.39 |
| Cc1ccc(-c2nc(CCNC(=O)CCN3CCOC3=O)co2)cc1 | -2.58 |
| Cn1ccnc1CN1CCN(Cc2noc(-c3ccccc3)n2)CC1 | -4.14 |
| Cc1ccc(CCC(=O)N2CCCC(n3cncn3)C2)c(C)c1 (centres undefined) | -3.58 |
| CCNc1cc2c(nn1)CCN(C(=O)c1ccc(CNC(C)=O)o1)C2 | -5.9 |
| CCc1nc(C2CCCN2C(=O)c2nc(C)n3ccccc23)no1 (centres undefined) | -7.79 |
| CCc1nc(CC(=O)N2CCCC2CN2CCCC2)cs1 (centres undefined) | -1.93 |
| CCc1nnc(CN2CCCC(c3cc(C(F)(F)F)[nH]n3)C2)o1 (centres undefined) | 0.217 |
| COc1ccccc1-c1noc(CN2CCCC2Cn2cccn2)n1 (centres undefined) | 12.5 |
| CCc1noc(C(C)N2CCNCC2)n1 (centres undefined) | 0.0476 |
| c1cnn(CC2CCCN2Cc2nc(-c3ccoc3)no2)c1 (centres undefined) | 28.2 |
| O=C(CN1CCCC(Cn2cncn2)C1)NCCOc1ccccc1 (centres undefined) | -2.13 |
| COc1ccc(CC(=O)N2CCCC(n3cc(C)cn3)C2)cc1F (centres undefined) | -2.2 |
| Cc1cc(OCC(=O)N2CCCC(c3noc(C)n3)C2)no1 (centres undefined) | -5.48 |

| SMILES | cytotoxicity at 70.5 h [%] |
| --- | --- |
| Cc1ccc(-c2nc(CN3CCCC3Cn3cc(C)cn3)no2)cc1 (centres undefined) | 23.6 |
| CN(C)CC1CN(Cc2coc(-c3cccs3)n2)CCO1 (centres undefined) | 1.06 |
| CC(Cn1cccn1)NC(=O)NCc1cccnc1OC1CCCC1 (centres undefined) | -12.8 |
| CC(Cn1cccn1)NC(=O)Cc1cccs1 (centres undefined) | -6.09 |
| CC(NC(=O)N1CCN(CCc2ccccc2)CC1)c1nncn1C (centres undefined) | -11 |
| COc1cc(C(=O)N2CCCS2(=O)=O)cc(Cl)c1OC | -9.28 |
| COc1cc(C(=O)N2CCCS2(=O)=O)ccc1C | 18.4 |
| CC(NC(=O)N1CCC(OCc2ccccc2)CC1)c1nncn1C (centres undefined) | -11.3 |
| CCn1cnnc1CNC(=O)N1CCC(C(=O)NC)CC1 | 1.9 |
| CC(NC(=O)c1cc(Br)c2c(c1)OCCO2)C(N)=O (centres undefined) | 16.6 |
| Cc1ccc(C(O)CNCCn2cccn2)cc1C (centres undefined) | -3.19 |
| CNc1snc(C)c1C(=O)N1CCCC(n2nc(C)cc2C)C1 (centres undefined) | 23.1 |
| CC(C)c1nc(C2CCCN2CC(=O)Nc2ccc(Cl)cn2)no1 (centres undefined) | 19.2 |
| COc1cccc(CNc2cnn(C)c(=O)c2Cl)c1 | 3.02 |
| O=C(c1cc(Cl)c2c(c1)OCO2)N1CCCC(n2ccnc2)C1 (centres undefined) | -8.93 |
| CCc1noc(C(C)N2CCN(Cc3nnc(C4CC4)o3)CC2)n1 (centres undefined) | -14.9 |
| Cc1nc(C)n(CC2CN(CCOCC(F)(F)F)CCO2)n1 (centres undefined) | -17.5 |
| Cc1cc(NC(=O)CN2CCCC2c2noc(C(C)C)n2)n(C)n1 (centres undefined) | -7.61 |
| c1ccc(-c2nc(CN3CCCC(Cn4cncn4)C3)co2)cc1 (centres undefined) | 17.2 |
| Cc1cnn(CCNCc2ccccc2Oc2cccnc2)c1 | 28.3 |
| Cc1cc(NC(=O)NCc2cccnc2OC(C)C)n(C)n1 | -6.35 |
| CCN(Cc1nc2c(cnn2C)c(=O)[nH]1)c1ccc(OC)c(OC)c1 | -7.15 |
| Cc1nc(CNC(C)c2ccc(OCC(=O)NC3CC3)cc2)cs1 (centres undefined) | 3.83 |
